Test results reported in publication PMC11651168, “Effective, but Safe? Physiologically Based Pharmacokinetic (PBPK)-Modeling-Based Dosing Study of Molnupiravir for Risk Assessment in Pediatric Subpopulations” (ACS Pharmacology & Translational Science, 2024).
Where two headings read alike, the source gives them in different places. Marks after values point to notes of the source that are not given here.

Tests used:
SARS-CoV-2 beta = tested on: SARS-CoV-2 beta; set-up: method as in Wen et al., 2023 (36); conditions: ref Wen et al., 2023 (36), read-out: Antiviral activity, EC50; cited from earlier work
SARS-CoV-2 alpha = tested on: SARS-CoV-2 alpha; set-up: method as in Wen et al., 2023 (36); conditions: ref Wen et al., 2023 (36), read-out: Antiviral activity, EC50; cited from earlier work
[1] = cited from earlier work
[2] = Plasma protein binding assay; assay type: in vitro ADME; conditions: 2 h incubation; for fraction unbound at 2 h: plasma
Description: (§1) First, for the construction of the adult molnupiravir-NHC PBPK model, the physicochemical properties were incorporated. Moreover, ADME in vitro assays were performed to allow a better estimation of in vivo PK behavior. In particular, the plasma stability and the metabolic stability assays were used to derive information on the half-life of molnupiravir and the subsequent generation of NHC. […] This information was taken into account during parameter optimization. […] The determination of the log P value yielded information for calculation of the partition coefficients. […] This value was used as a basis for the subsequent parameter optimization. As NHC is further converted to NHC-TP, which is cleared via the endogenous nucleoside pool, renal clearance as well as hepatic clearance, indicated by our in vitro data, is not involved in clearance.
(§2) The plasma protein binding assay, the plasma stability assay, and the metabolic stability assay were performed as described previously.[30] For all of the assays, NHC and molnupiravir were used. Molnupiravir and NHC were purchased from Merck/Sigma.

[3] = Microsomal metabolic stability assay; assay type: in vitro ADME; conditions: microsomes; for microsomal CLint: microsomal metabolic stability (Clint; in vitro)
Description: as §1, §2

SARS-CoV-2 delta = tested on: SARS-CoV-2 delta; set-up: method as in Wen et al., 2023 (36); conditions: ref Wen et al., 2023 (36), read-out: Antiviral activity, EC50; cited from earlier work
[4] = tested on: SARS-CoV-2 omicron BA.1 lineage; set-up: method as in Wen et al., 2023 (36); conditions: ref Wen et al., 2023 (36), read-out: Antiviral activity, EC50; cited from earlier work
[5] = tested on: SARS-CoV-2 omicron BA.2 lineage; set-up: method as in Wen et al., 2023 (36); conditions: ref Wen et al., 2023 (36), read-out: Antiviral activity, EC50; cited from earlier work
Plasma stability assay = assay type: in vitro ADME; conditions: for half-life: plasma
Description: as §1, §2

[6] = cited from earlier work; remark: listed apart in the source
SARS-CoV-2 wildtype = tested on: SARS-CoV-2 wildtype; set-up: method as in Wen et al., 2023 (36); conditions: ref Wen et al., 2023 (36), read-out: Antiviral activity, EC50; cited from earlier work
[7] = Experimental determination of log P (octan-1-ol/water); assay type: physicochemical; conditions: data from in vitro studies
Description: The log P experiment was performed for molnupiravir and its metabolite NHC. Octan-1-ol and water were saturated 24 h prior to the start of the experiment. Each compound was added to the octan-1-ol phase at a final concentration of 100 ng/mL. Two setups were used: octan-1-ol/water (1:1) and octan-1-ol/water (1:10). After addition of the compound, each phase was shaken at 2000 rpm for 1 h, and then, phases were separated by centrifugation at 13,000 rpm for 5 min at 4 °C. From each sample, 10 μL of water layer and octanol layer was diluted to 100 μL with DMSO for high-performance liquid chromatography tandem mass spectrometry (HPLC-MS/MS) analysis. The log P was calculated by Formula 1. [drawing 1] 1
Samples were analyzed using an Agilent 1290 Infinity II HPLC system coupled to an AB Sciex QTrap 6500plus mass spectrometer. LC conditions were as follows: column: Agilent Zorbax Eclipse Plus C18, 50 × 2.1 mm, 1.8 μm; temperature: 30 °C; injection volume: 1 μL per sample; flow rate: 700 μL/min. Samples were collected under the following conditions. Solvents: A: 100% water +0.1% HCOOH; solvent B: 100% ACN +0.1% HCOOH. The gradient was as follows: 99% A at 0 min, 99% A until 1 min, 99–0% A from 1 to 3 min, 99% A until 3.2 min. Mass transitions are depicted in Table S1. Peaks of samples were quantified by using relative quantification. […]

dogs [8] = assay: Preclinical toxicity study in dogs; conditions: allometric scaling of 50 mg/kg/day in dogs, scaling factors of ref 38
rats [9] = assay: Preclinical bone and cartilage toxicity in rats; conditions: allometric scaling of 500 mg/kg/day in rats, scaling factors of ref 38
rats [10] = tested on: rats; set-up: method as in earlier work; conditions: over three months; cited from earlier work
[11] = cited from earlier work; remark: listed apart in the source
[12] = Pediatric PBPK model for neonates, infants and children in early childhood (PK-Sim); set-up: species or system human
PAMPA permeability assay = assay type: in vitro ADME
Description: For the PAMPA assay, a PAMP-096 kit from BioAssay Systems was used. Theophyllin, chloramphenicol, and diclofenac were used as low, high, and medium permeability controls, respectively. The assay was conducted as described in the manufacturer’s protocol. For all compounds, 10 mg/mL DMSO stocks were used. Compound concentrations were determined using HPLC-MS/MS. For the HPLC-MS measurements, samples were analyzed using an Agilent 1290 Infinity II HPLC system coupled to an AB Sciex QTrap 6500plus as described below. Permeability was determined as follows in eqs 2 and 3.
Effective permeability (Peff) was calculated using the following formula [drawing 2] 2 [drawing 3] 3 where the PAt is average peak area of the test compound or permeability standard and PAE is the peak area of the equilibrium standard. The value of C was calculated by the following formula, where donor volume (VD) is 0.2 cm^3, acceptor volume (VA) is 0.3 cm^3, membrane area is 0.24 cm^2, and incubation time is 72,360 s.
Samples were analyzed using an Agilent 1290 Infinity II HPLC system coupled to an AB Sciex QTrap 6500plus mass spectrometer. LC conditions were as follows: column: Agilent Zorbax Eclipse Plus C18, 50 × 2.1 mm, 1.8 μm; temperature: 30 °C; injection volume: 1 μL per sample; flow rate: 700 μL/min. Samples were collected under the following conditions. Solvents: A: 100% water +0.1% HCOOH; solvent B: 100% ACN +0.1% HCOOH. The gradient was as follows: 99% A at 0 min, 99% A until 1 min, 99–0% A from 1 to 3 min, 99% A until 3.2 min. Mass transitions are depicted in Table S1. Peaks of samples were quantified by using relative quantification. Data analysis was performed by using Multiquant 3.0 software (AB Sciex).

dogs [13] = conditions: 14 days; cited from earlier work

SMILES: O=c1nc(NO)ccn1[C@@H]1O[C@H](CO)[C@@H](O)[C@H]1O [NHC, β-D-N4-hydroxycytidine]
- EC50 (SARS-CoV-2 beta): 480 nM
- EC50 (SARS-CoV-2 alpha): 530 nM
- pKa ([1]; model input, source not given): 12.30
- plasma protein binding (%) [2]: 38.84 ^b %
- fraction unbound at 2 h [2]: ~0.64
- microsomal CLint [3]: ~11.6 µL/min/mg
- EC50 (SARS-CoV-2 delta): 890 nM
- EC50 [4]: 280 nM
- EC50 [5]: 670 nM
- plasma stability (in words) (Plasma stability assay): stable in plasma
- half-life (Plasma stability assay): > 4 h
- solubility [6]: 21[21] mg/mL
- EC50 (SARS-CoV-2 wildtype): 300 nM
- logP [7]: 0.1

SMILES: CC(C)C(=O)OC[C@H]1O[C@@H](n2ccc(NO)nc2=O)[C@H](O)[C@@H]1O [Molnupiravir]
- human equivalent dose of the nonobserved toxicity dose in dogs (dogs [8]): 27 mg/kg/day
- human equivalent dose of the toxicity-associated rat dose (rats [9]): around 80 mg/kg/day
- dose at which bone and cartilage toxicity was observed (rats [10]): exceeding 500 mg/kg/day
- pKa ([1]; first of three values): 2.2
- pKa ([1]; second of three printed values): 10.2
- pKa ([1]; third of three printed values): 12.0
- plasma protein binding (%) [2]: 38.08 ^b %
- fraction unbound at 2 h [2]: ~0.62
- microsomal metabolic stability (Clint; in vitro) [3]: 40.6 ^b μL/min/mg protein
- microsomal CLint [3]: ~40 µL/min/mg
- decrease in Cmax with food (ratio) ([11]; concomitant food consumption): 1.6
- effect of food on total exposure (AUC0–∞) ([11]; concomitant food consumption): not impacted
- Tmax ([11]; with concomitant food consumption): 3.0 h
- Tmax ([11]; without food): 1.0 h
- plasma stability (in words) (Plasma stability assay): degraded rapidly in plasma
- half-life (Plasma stability assay): < 0.25 h
- fold higher doses needed in pediatric subpopulations for similar efficacy to adults [12]: 2–3 fold
- permeability (in words) (PAMPA permeability assay): moderate permeability
- permeability (PAMPA) (PAMPA permeability assay; 72360 s): 3.1 10^–6 cm/s
- Papp at 72360 s (PAMPA permeability assay; data from in vitro studies, read-out: specific intestinal permeability (converted)): 3.1 ×10⁻⁶ cm/s
- solubility [6]: 41[21] mg/mL
- dose at which no toxicity was observed (dogs [13]): 50 mg/kg/day
